Test results from publication PMC12794274, “Therapeutic potential of Sheng-Xian-Tang in doxorubicin-induced chronic heart failure by regulation of phenylalanine metabolism disruption” (Chinese Medicine, 2026).
Values joined by “and” are separate entries in the source; they are usually repeats but may differ in a detail not shown here. Equal values may be shown once.

Assays:
[1] = system: DOX-induced CHF rats; assay: Oxidative stress in heart and liver tissue (SOD, MDA, ROS, PTGS2); format: in vivo, rat; conditions: experiment II
Experimental: Immunofluorescence staining was performed on tissue sections to detect phenylalanine hydroxylase (PAH), prostaglandin-endoperoxide synthase 2 (PTGS2), and reactive oxygen species (ROS). Primary antibodies against PAH and PTGS2 were used, while ROS was detected using the DCFH-DA probe. Nuclei were counterstained with DAPI. Images were captured using a fluorescence microscope. Serum biochemical parameters including brain natriuretic peptide (BNP), creatine kinase (CK), lactate dehydrogenase (LDH), alanine aminotransferase (ALT), and aspartate aminotransferase (AST) were measured using commercial ELISA kits (Nanjing Jiancheng Bioengineering Institute, Nanjing, China) according to the manufacturer's instructions. Superoxide dismutase (SOD), and malondialdehyde (MDA) levels in liver and heart tissues were measured using assay kits from […] Biotechnology (Changsha, China). Phenylalanine and tyrosine concentrations in the cell were determined using an ELISA kit from Abmart (Shanghai, China).

[2] = system: phenylalanine metabolism; assay: Phenylalanine and tyrosine levels in rat serum, liver and heart tissues (LC/MS); format: in vivo
Experimental: Phenylalanine and tyrosine in the different rat bio-samples were analyzed by LC/MS using an Agilent 1290 Ultra high-performance liquid chromatography (UHPLC) and an Agilent 6460 triple-quadrupole tandem mass spectrometer (QQQ-MS) (Agilent Inc, USA). Data were acquired by using an Agilent Zorbax SB-C18 column (3.0 × 150 mm, 5 μm) as described previously.

[3] = system: DOX-induced chronic heart failure (CHF) rat model; assay: Echocardiography (LVEF%, LVFS%) in DOX-induced CHF rats; format: in vivo; conditions: experiment II, DOX + Phe 280 mg/kg, BH4 14 mg/kg or SXT 16 g/kg vs DOX group
Experimental: Experiment I, 48 rats were randomly divided into six groups: (1) the CON group; (2) the DOX group; (3) the DOX + enalapril (ENP, positive control, 1.8 mg/kg) group; (4) the DOX + SXT at low dose group (4 g/kg); (5) the DOX + SXT at middle dose group (8 g/kg); and […] the DOX + SXT at high dose group (16 g/kg). Except those rats in the CON group, the remaining rats received DOX at a 2.5 mg/kg per injection to a cumulative dose of 15 mg/kg. The dose of SXT for the low-dose group was set at 4 g/kg, based on the minimum human clinical daily dose (48.5 g, Table S2) converted to an equivalent rat dose using body surface area normalization (48.5 g/70 kg × 6.3 ≈ 4.4 g/kg, rounded to 4 g/kg). To evaluate a clear dose–response relationship, the medium and high doses were established at 8 g/kg and 16 g/kg, respectively, corresponding to 2 fold and 4 fold the low dose. This gradient dosing strategy is consistent with the Technical Guidelines for Pharmacodynamic Studies of Traditional Chinese Medicine and the Technical Guidelines for General Pharmacology Studies of Traditional Chinese Medicine and Natural Drugs, and is further supported by our previous study on the effective dose range of SXT in a rat model of doxorubicin-induced chronic heart failure. Heart function was monitored by echocardiography analysis at day 39, and the CHF model was considered to be successfully established when the left ventricular ejection fraction (LVEF%) values were reduced to 50%. Urinary samples were collected at five time points (0, 10, 20, 30, and 39 d), while fecal samples were collected before the rats were euthanized. Subsequently, the rats were anesthetized, and blood samples and heart and liver tissues were collected. All bio-samples were stored at − 80 °C until analysis.
Experiment II was conducted to specifically confirm the exacerbated cardiac abnormality of phenylalanine in the DOX-induced CHF rats. […] Heart function was detected as in the experiment I.
Echocardiographic (ECG) measurements were performed using M-mode tracings and continuous Doppler with a Vevo 2100 system (Visual Sonics, Toronto, ON, Canada). Rats were anesthetized with isoflurane prior to imaging. Cardiac function indices including left ventricular ejection fraction (LVEF%) and left ventricular fractional shortening (LVFS%) were measured and recorded.

[4] = system: H9C2 cells; assay: Effect of phenylalanine on doxorubicin-induced H9C2 cells; format: cell-based; conditions: DOX 1 µM + Phe 18.5 µM, 24 h
Experimental: H9C2 cells were seeded in 96-well plates at a density of 5 × 10⁴ cells per well (in 100 µL medium) and allowed to adhere for 12 h. The cells were then treated for 24 h with either DOX (1 µM) alone or DOX (1 µM) in combination with Phe (18.5 µM; a concentration derived from the dosing conversion ratio used in prior rat experiments). An untreated group served as the control. Cell viability was determined by measuring the optical density at 450 nm using a microplate reader. The levels of CK, LDH, SOD, and MDA were quantified using commercial assay kits.

[5] = system: cardiac tissues of DOX-induced CHF rats; assay: Heart histopathology (H&E, Masson) and TUNEL apoptosis detection; format: in vivo, rat; conditions: experiment II, co-treatment vs DOX group
Experimental: Cardiac tissues were fixed in 4% paraformaldehyde, embedded in paraffin, and sectioned at 4–5 μm thickness. Hematoxylin and eosin (H&E) staining was performed to assess histopathological changes, while Masson’s trichrome staining was used to evaluate cardiac fibrosis. Apoptosis in cardiac tissues was detected using a TUNEL assay kit (C1088, Beyotime, Shanghai, China).

[6] = system: heart tissues; assay: Transmission electron microscopy of heart tissue; format: in vivo, rat; conditions: experiment II; DOX alone, co-treatments vs DOX
Experimental: Freshly excised heart tissues were immediately fixed in 2.5% glutaraldehyde at 4 °C overnight. After washing with 0.1 M cacodylate trihydrate buffer, samples were post-fixed with 1% osmium tetroxide for 1 h. Tissues were then dehydrated through a graded ethanol series, incubated in acetone, and embedded in epoxy resin. Ultrathin sections were mounted on copper grids and imaged using a Hitachi HT7800 transmission electron microscope (Tokyo, Japan).

[7] = system: phenylalanine hydroxylase (PAH); assay: PAH expression in liver and heart (western blotting, immunofluorescence); format: in vivo, rat; conditions: experiment II; DOX vs CON, co-treatments vs DOX
Experimental: Immunofluorescence staining was performed on tissue sections to detect phenylalanine hydroxylase (PAH), prostaglandin-endoperoxide synthase 2 (PTGS2), and reactive oxygen species (ROS). Primary antibodies against PAH and PTGS2 were used, while ROS was detected using the DCFH-DA probe. Nuclei were counterstained with DAPI. Images were captured using a fluorescence microscope.
Protein was extracted from liver or heart tissue samples (30 mg) using lysis buffer. Total protein concentration was determined using a BCA protein assay kit (Thermo Fisher Scientific, USA). Equal amounts of protein from each sample were separated on 10–12% SDS-PAGE gels and transferred to PVDF membranes. Membranes were blocked with quick blocking buffer for 30 min, then incubated with anti-PAH primary antibody (1:1000 dilution) overnight at 4 °C. After washing, membranes were incubated with a secondary antibody for 1 h at 37 °C. Protein bands were visualized using an Odyssey infrared imaging system (JS-1070, Shanghai Peiqing Science & Technology Co., Ltd, China). Band intensities were quantified using ImageJ software.

[8] = system: DOX-induced CHF rats; assay: Serum biochemical parameters (BNP, CK, LDH, ALT, AST) by ELISA kits; format: in vivo, rat; conditions: experiment II, co-treatment vs DOX group
Experimental: Serum biochemical parameters including brain natriuretic peptide (BNP), creatine kinase (CK), lactate dehydrogenase (LDH), alanine aminotransferase (ALT), and aspartate aminotransferase (AST) were measured using commercial ELISA kits (Nanjing Jiancheng Bioengineering Institute, Nanjing, China) according to the manufacturer's instructions. Superoxide dismutase (SOD), and malondialdehyde (MDA) levels in liver and heart tissues were measured using assay kits from […] Biotechnology (Changsha, China). Phenylalanine and tyrosine concentrations in the cell were determined using an ELISA kit from Abmart (Shanghai, China).

[9] = target: T1, PAH protein in AML12 cells (Mus musculus, UniProt P16331); assay: Cellular Thermal Shift Assay (CETSA); format: cell-based; conditions: neomangiferin 10 μM, 24 h, 37-72 °C, vs control group
T1 construct: endogenous in cells; host or cells: AML12 mouse hepatocytes
T1 sequence (P16331 1-453): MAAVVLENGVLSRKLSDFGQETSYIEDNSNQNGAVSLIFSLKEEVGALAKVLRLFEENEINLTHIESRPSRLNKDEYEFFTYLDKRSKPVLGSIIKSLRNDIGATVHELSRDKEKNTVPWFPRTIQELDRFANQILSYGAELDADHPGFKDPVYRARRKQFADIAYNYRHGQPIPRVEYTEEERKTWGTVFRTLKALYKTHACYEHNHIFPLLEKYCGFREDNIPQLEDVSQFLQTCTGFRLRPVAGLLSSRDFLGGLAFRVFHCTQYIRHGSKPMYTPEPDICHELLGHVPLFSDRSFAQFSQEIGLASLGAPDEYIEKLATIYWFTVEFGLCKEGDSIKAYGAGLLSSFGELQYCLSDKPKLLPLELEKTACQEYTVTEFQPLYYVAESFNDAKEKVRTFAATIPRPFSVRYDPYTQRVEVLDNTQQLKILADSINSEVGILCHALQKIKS
Experimental: AML12 cells (5 × 10^5 cells/well) in 6-well plates were divided into two groups, with 8 wells in each group. […] After 24 h, 8 samples of cells from each of the two groups were incubated at specific temperatures (37, 42, 47, 52, 57, 62, 67, and 72 °C) for 3 min and each sample was performed for western blotting analysis.

[10] = system: PAH activity in AML12 cells; format: cell-based
Experimental: Serum biochemical parameters including brain natriuretic peptide (BNP), creatine kinase (CK), lactate dehydrogenase (LDH), alanine aminotransferase (ALT), and aspartate aminotransferase (AST) were measured using commercial ELISA kits (Nanjing Jiancheng Bioengineering Institute, Nanjing, China) according to the manufacturer’s instructions. Superoxide dismutase (SOD), and malondialdehyde (MDA) levels in liver and heart tissues were measured using assay kits from Aifang Biotechnology (Changsha, China). Phenylalanine and tyrosine concentrations in the cell were determined using an ELISA kit from Abmart (Shanghai, China).
(§1) Mouse hepatocellular cell lines (AML12), purchased from the Shanghai Cell Bank of Chinese Academy of Sciences (Shanghai, China), were cultured in Dulbecco’s Modified Eagle Medium (DMEM) supplemented with 10% fetal bovine serum (FBS) and 2 mM L-glutamine and 1% pyruvate and maintained at 37 °C in a […], 5% CO2 incubator. Cells were seeded at a density of 5 × 10^5 cells/well in 6-well plates. […] Cells’ survival rate was detected by Cell Counting Kit-8 (CCK8) Reagents (Thermo Scientific, Singapore).

[11] = system: AML12 cells; assay: AML12 cell viability (CCK8); format: cell-based
Experimental: as §1

[12] = system: AML12 cells; format: cell-based, mouse; conditions: AML12 cells, dose-dependent
Experimental: as §1

[13] = target: Phenylalanine hydroxylase (PAH) protein (Homo sapiens, UniProt P00439); assay: Surface Plasmon Resonance (SPR) analysis, Biacore T200; format: binding; conditions: PAH immobilized on CM5 chip, read-out: dissociation constant (Kd)
Sequence of Phenylalanine hydroxylase (PAH) protein (P00439 whole entry): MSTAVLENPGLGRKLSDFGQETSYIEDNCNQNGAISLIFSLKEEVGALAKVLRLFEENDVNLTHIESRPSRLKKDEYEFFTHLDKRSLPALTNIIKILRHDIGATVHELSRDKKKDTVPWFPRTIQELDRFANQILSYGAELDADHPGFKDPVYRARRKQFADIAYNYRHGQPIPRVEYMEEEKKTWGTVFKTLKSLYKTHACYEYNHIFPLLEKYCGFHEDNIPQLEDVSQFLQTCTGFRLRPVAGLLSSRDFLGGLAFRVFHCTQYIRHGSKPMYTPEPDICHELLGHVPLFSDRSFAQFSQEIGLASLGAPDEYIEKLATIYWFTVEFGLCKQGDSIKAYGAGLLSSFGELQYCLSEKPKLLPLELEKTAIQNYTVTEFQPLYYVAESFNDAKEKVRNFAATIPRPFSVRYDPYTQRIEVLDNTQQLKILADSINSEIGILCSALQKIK
Experimental: SPR assays were conducted using a Biacore T200 system (GE Healthcare Life Sciences, USA). Phenylalanine hydroxylase (PAH) protein was immobilized on CM5 sensor chips using an amine-coupling kit (BR100050, GE Healthcare) following standard procedures. […] Samples were injected over reference and PAH-immobilized flow cells at a flow rate of 30 μL/min, with 120 s contact time and 120 s dissociation time. Kinetic parameters were calculated using Biacore T200 evaluation software.

[14] = DOX + phenylalanine vs DOX group

SMILES | hepatic and cardiac MDA [1, 14] | hepatic and cardiac SOD activity [1, 14] | ROS production and PTGS2 expression in the heart ([1]; co-treatment with DOX) | serum phenylalanine concentration ([2]; experiment II, DOX + phenylalanine 280 mg/kg, BH4 14 mg/kg or SXT 16 g/kg) [µM] | increase in serum phenylalanine levels ([2]; oral phenylalanine, compared to the DOX group) [%] | LVEF and LVFS / DOX-induced cardiac dysfunction [3] | DOX-induced cardiotoxicity in H9C2 cells (cell viability, SOD, CK, LDH, MDA) [4] | DOX-induced cardiac injury and collagen accumulation (H&E and Masson) [5] | mitochondrial ultrastructure of heart (electron microscopy) [6] | PAH expression in heart tissue [7] | PAH expression in liver tissue [7] | DOX-induced increases in serum levels of BNP, CK, LDH, ALT and AST [8] | thermal stability of PAH protein (CETSA) [9] | PAH activity (enzyme activity assay) [10] | phenylalanine levels in AML12 cells increased by DOX ([10]; BH4 10 μM, timosaponin B-II, neomangiferin, anemarrhenasaponin I 5, 10, 20 μM, timosaponin AIII 0.1, 0.2, 0.5 μM) | non-cytoxic concentration [11] [µM] | DOX-induced AML12 cell viability ([11]; DOX 1 µM, 24 h, three concentrations of compound) | DOX-induced oxidative stress (SOD, MDA) [12] | Kd [13]
N[C@@H](Cc1ccccc1)C(=O)O [phenylalanine] | marked MDA elevation | pronounced suppression | upregulating | 100.715 | 16.92 | lower | exacerbated | exacerbated | more pronounced | further exacerbated | further exacerbated | largely promoted |  |  |  |  |  |  | 
O=c1c2cc(O[C@@H]3O[C@H](CO)[C@@H](O)[C@H](O)[C@H]3O)c(O)cc2oc2cc(O)c([C@@H]3O[C@H](CO)[C@@H](O)[C@H](O)[C@H]3O)c(O)c12 [Neomangiferin] |  |  |  |  |  |  |  |  |  |  |  |  | better thermal stability | significantly increase | significantly reduce | 5 to 20 | alleviated | alleviated | 5.75 µM and < 10 µM
